Patent US5376637A, “Pharmaceutical preparation containing vasoactive intestinal polypeptide or its analogue” (Sanwa Kagaku Kenkyusho Co., Ltd., priority 1991, dated 1994)

What was measured:
PCA reaction = assay: Passive cutaneous anaphylaxis test (PCA reaction); type: in vivo; settings: male rat
Protocol: A rat was immunized with egg-albumin suspended in aluminum hydroxide gel in a conventional manner and a blood letting was carried out to obtain an antiserum rich in IgE.
A male rat was anesthetized with ethyl ether and hairs on back were sheared to intradermally inject by 0.1 ml of the antiserum solution (diluted to 5-folds in volume) described in Item (1), at both sides with a certain distance from a medial line on the back. After 72 hours, a mixed solution of egg albumin (5 mg/kg), 2% Evans blue and a test compound (L-Leu^17 ]-VIP-Hse or pure native type VIP) or disodium cromoglycate was injected into a vein, under anesthetized with pentobarbital. After 30 minutes from an occasion of PCA reaction, the experimental animal was killed and pealed-off the skin to obtain a piece of the skin dyed with the coloring matter.
The coloring matter was extracted in accordance with the method described by Katayama ["Microbio. Immunol.", Vol. 22, No. 2, pages 89 (1987)] and an amount thereof was measured at 620 nm in wave length to calculate an inhibition of the PCA reaction.

arterial pressure = assay: Hypotensing action in anesthetized beagle dog; type: in vivo; settings: injection in femoral artery, 0.02-10 μg/kg
Protocol: In a femoral artery of anesthetized beagle dog (body weight: about 10 kg), each of VIP analogues as Test Samples was injected in a dose of 0.02-10 μg/kg and measured an arterial pressure to prepare a chart showing a relation between the dose and change in blood pressure and check an amount of dose which shall cause a reduction of 15 mmHg in blood pressure.

[1] = dose 0.01 mg/kg injected into a vein
[2] = dose 0.1 mg/kg injected into a vein
[3] = dose 1.0 mg/kg injected into a vein

| Structure (SMILES) | Inhibition (%) of PCA reaction (PCA reaction; [1]) [%] | Inhibition (%) of PCA reaction (PCA reaction; [2]) [%] | Inhibition (%) of PCA reaction (PCA reaction; [3]) [%] | amount of dose causing a reduction of 15 mmHg in blood pressure, relative value (native type VIP = 100%) (arterial pressure) [%] |
| --- | --- | --- | --- | --- |
| O=C([O-])c1cc(=O)c2c(OCC(O)COc3cccc4oc(C(=O)[O-])cc(=O)c34)cccc2o1.[Na+].[Na+] [Disodium cromoglycate] | 5 | 28 | 31 |  |
| CC[C@H](C)[C@H](NC(=O)[C@H](CO)NC(=O)[C@H](CC(N)=O)NC(=O)[C@H](CC(C)C)NC(=O)[C@H](Cc1ccc(O)cc1)NC(=O)[C@H](CCCCN)NC(=O)[C@H](CCCCN)NC(=O)[C@@H](NC(=O)[C@H](C)NC(=O)[C@H](CCSC)NC(=O)[C@H](CCC(N)=O)NC(=O)[C@H](CCCCN)NC(=O)[C@H](CCCNC(=N)N)NC(=O)[C@H](CC(C)C)NC(=O)[C@H](CCCNC(=N)N)NC(=O)[C@@H](NC(=O)[C@H](Cc1ccc(O)cc1)NC(=O)[C@H](CC(N)=O)NC(=O)[C@H](CC(=O)O)NC(=O)[C@@H](NC(=O)[C@H](Cc1ccccc1)NC(=O)[C@@H](NC(=O)[C@H](C)NC(=O)[C@H](CC(=O)O)NC(=O)[C@H](CO)NC(=O)[C@@H](N)Cc1c[nH]cn1)C(C)C)[C@@H](C)O)[C@@H](C)O)C(C)C)C(=O)N[C@@H](CC(C)C)C(=O)N[C@@H](CC(N)=O)C(N)=O [Native type VIP, vasoactive intestinal polypeptide] | 23 | 72 | 67 | 100 |
